Reference: US11022604B2, “Dock derived compound against laminin receptor (37 LR) and uses thereof” (Purdue Research Foundation, priority 2017, dated 2021)

Assays:
Type in all cases: cell-based
[1] = test system: PC3 prostate cancer cell line; test: Cell Titer Glo cell viability assay; details: Homo sapiens, PC-3, PC3 cells
Text: In this series of cell viability experiments, we used the highly sensitive Cell Titer Glo reagents from Promega in PC3 prostate cancer cell line. We compared the parental compound C3 effect on reducing cell viability with the best derivative compound, DBG-02-09.

[2] = test system: PC-3 cells; test: RT-qPCR of PEDF-signaling associated genes; details: PC-3, 50 μM, 48 hours
Description: Expression of PEDF-signaling associated genes from PC-3 cells treated with 50 μM C3, compared to DMSO control and normalized to GAPDH (n=3, mean±SEM). A Holm-Sidak multiple t test was used for statistical analysis (*p<0.05,**O<0.01, ***<0.001). […] Average tube count for 0.1% DMSO, 0.5% DMSO, and 1, 10 and 50 μM treatment with C3 (n=7, mean±SEM). 1 and 10 μM C3 were compared with respective 0.5% DMSO (unpaired two-tailed t test, ****<0.0001). 50 μM C3 was compared with respective 0.1% DMSO (unpaired two-tailed t test p<0.0001).
RT-qPCR. PC-3 cells were seeded in 6 well plates at 3×10^5 cells per well and incubated with 50 μM C3 or DMSO equivalent in 1×RPMI-1640, 1× anti-anti, and 2% FBS (ThermoFisher) for 48 hours. PC-3 cells were lifted using 20 mM EDTA in 1×DPBS and pelleted before isolating total RNA using the RNeasy Mini Kit (Qiagen). 1 μg of RNA per sample was reverse transcribed using the amfiRivert cDNA synthesis master mix (GenDEPOT). Real-time PCR wells contained 1 μL cDNA template, 2×SYBR Green Master Mix (Applied Biosystems), and 20 μM forward and reverse primers. Primer sequences are provided in Table 2. qRT-PCR was performed on an Eppendorf Realplex 2S (Eppendorf), using: 40×95° C. for 3 mins; 95° C. for 3 s; 60° C. for 30 s; 72° C. for 8 s and analyzed using EP Realplex software (version 2.2). Fold changes were normalized to GAPDH using the ddCT method.
Genes involved in migration/invasion and/or extracellular matrix (ECM) communication also were assayed.

[3] = test system: PC-3 cells; test: Wound healing (scratch) assay; details: PC3, 50 uM, 48 h
Description: PC-3 cells were treated with 1, 10, 50 μM C3 or DMSO control after scratch formation and images were recorded using a brightfield microscope as described in the methods. […] Brightfield images were quantified using the t-scratch program and represented as % scratch closure after 48 hours of migration compared to a 0 hour control (n=9, mean±SEM). A one-way ANOVA test was used for statistical analysis (p<0.05).
Wound Healing Assay. PC-3 cells were seeded in 6 well plates at 3×10^5 cells per well in complete media until the cells reached confluency. Three horizontal and three vertical scratches were made in the confluent monolayers using a standard 200 μL pipette tip and cellular debris were removed by washing with 1×DPBS three times. 1×RPMI-1640 supplemented with C3 or DMSO was added and cells were incubated for 48 hours as described previously. […] Images were uploaded and analyzed for scratch geometry using the tscratch program (96). First, global thresholding was performed, then individual images were manually inspected for single image threshold adjustment and scratch geometries were quantified. […] The samples were analyzed using the Dionex UltiMate 3000 RSLC Nano System coupled to the Q Exactive™ HF Hybrid Quadrupole-Orbitrap MS (Thermo Scientific). […] Label free quantitation (LFQ) was performed using a minimum ratio count of 2 with fast LFQ. […]

IC50 [1]: 16.7 ± 7.6 µM
Structure (SMILES): O=C(c1cc(F)cc2c1OCOC2)N1CCN(C2c3ccccc3-c3ccccc32)CC1 [Compound C3, [4-(9h-fluoren-9-yl)piperazino](6-fluoro-4h-1,3-benzodioxin-8-yl)methanone]
VEGF mRNA, fold change [2]: ~4 FC
VEGFR2 transcription, fold change [2]: > −15 fold change
thrombospondin-1 (THBS1) mRNA, fold change [2]: > 10 FC
prevention of wound closure [3]: ~70%
